For two compounds, IC50 results are on record in paper PMC8928484 (Journal of the American Chemical Society, 2022).

Test [1] deals with T1, FEM1B (Mus musculus, UniProt Q9Z2G0). In words: competitive fluorescence polarization with TAMRA-FNIP1 degron. It counts as binding. For orientation: Polarisation of emitted light reports the rotation of a fluorescent probe.
In test [2] the target is T1, FEM1B. Described as above. It counts as binding. The source holds these as a separate data set.

Where two headings read alike, the source gives them in different places.

T1 sequence (Q9Z2G0 whole entry): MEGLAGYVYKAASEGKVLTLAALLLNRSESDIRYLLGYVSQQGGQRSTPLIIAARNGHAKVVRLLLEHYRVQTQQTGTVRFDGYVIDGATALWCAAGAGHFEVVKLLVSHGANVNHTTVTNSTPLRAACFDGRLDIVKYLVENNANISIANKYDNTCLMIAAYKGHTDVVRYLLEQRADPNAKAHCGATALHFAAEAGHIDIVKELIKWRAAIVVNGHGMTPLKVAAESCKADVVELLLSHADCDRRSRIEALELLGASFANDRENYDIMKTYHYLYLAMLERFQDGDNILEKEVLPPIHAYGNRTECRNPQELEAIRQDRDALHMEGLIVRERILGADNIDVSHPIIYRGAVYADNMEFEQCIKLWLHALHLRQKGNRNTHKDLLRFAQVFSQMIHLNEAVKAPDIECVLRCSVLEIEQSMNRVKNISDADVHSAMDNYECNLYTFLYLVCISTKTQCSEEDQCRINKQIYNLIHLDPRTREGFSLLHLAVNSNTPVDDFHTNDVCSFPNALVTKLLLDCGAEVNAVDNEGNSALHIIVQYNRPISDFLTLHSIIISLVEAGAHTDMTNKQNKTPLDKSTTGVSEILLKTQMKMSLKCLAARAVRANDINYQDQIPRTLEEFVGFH

The IC50 is the concentration that inhibits the measured activity by half. High values mean a need for much substance, low ones inhibition by little substance. In test [1], `C#CCCCC(=O)N1CCOc2cc(N(CCC#N)C(=O)CCl)ccc21` [NJH-2-030] came in with an IC50 of 670 nM. NJH-1-106 yielded an IC50 in test [2] of 1500 nM.
